IC50 and Ki data for 31 compounds are collected here from patent US9802937B2, “Substituted pyrazolo{4,3-D}pyrimidines as kinase inhibitors” (ORIGENIS GMBH, priority 2011, dated 2017).

In one assay the target is LRRK2 (Homo sapiens, UniProt Q5S007). Nature of the assay: LRRK2-LRRK2 G2019S-Assay (LanthaScreen Eu Kinase Binding Assay). The following applies: 5 nM LRRK2 or their mutants, 10 nM tracer 236, RT 1 h; read-out: LRRK2 Activities: IC50. An outline of the steps: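 Kinase (wild type or mutant, 5 nM) mixed with Eu-anti-GST antibody (2 nM), then 10 nM Alexa Fluor 647 tracer 236 added. After 1 h at room temperature, the acceptor/donor (665/615 nm) FRET ratio was measured. IC50 was fitted from concentration–ratio curves.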
LRRK2, sequence (Q5S007 970-2527 limits assumed): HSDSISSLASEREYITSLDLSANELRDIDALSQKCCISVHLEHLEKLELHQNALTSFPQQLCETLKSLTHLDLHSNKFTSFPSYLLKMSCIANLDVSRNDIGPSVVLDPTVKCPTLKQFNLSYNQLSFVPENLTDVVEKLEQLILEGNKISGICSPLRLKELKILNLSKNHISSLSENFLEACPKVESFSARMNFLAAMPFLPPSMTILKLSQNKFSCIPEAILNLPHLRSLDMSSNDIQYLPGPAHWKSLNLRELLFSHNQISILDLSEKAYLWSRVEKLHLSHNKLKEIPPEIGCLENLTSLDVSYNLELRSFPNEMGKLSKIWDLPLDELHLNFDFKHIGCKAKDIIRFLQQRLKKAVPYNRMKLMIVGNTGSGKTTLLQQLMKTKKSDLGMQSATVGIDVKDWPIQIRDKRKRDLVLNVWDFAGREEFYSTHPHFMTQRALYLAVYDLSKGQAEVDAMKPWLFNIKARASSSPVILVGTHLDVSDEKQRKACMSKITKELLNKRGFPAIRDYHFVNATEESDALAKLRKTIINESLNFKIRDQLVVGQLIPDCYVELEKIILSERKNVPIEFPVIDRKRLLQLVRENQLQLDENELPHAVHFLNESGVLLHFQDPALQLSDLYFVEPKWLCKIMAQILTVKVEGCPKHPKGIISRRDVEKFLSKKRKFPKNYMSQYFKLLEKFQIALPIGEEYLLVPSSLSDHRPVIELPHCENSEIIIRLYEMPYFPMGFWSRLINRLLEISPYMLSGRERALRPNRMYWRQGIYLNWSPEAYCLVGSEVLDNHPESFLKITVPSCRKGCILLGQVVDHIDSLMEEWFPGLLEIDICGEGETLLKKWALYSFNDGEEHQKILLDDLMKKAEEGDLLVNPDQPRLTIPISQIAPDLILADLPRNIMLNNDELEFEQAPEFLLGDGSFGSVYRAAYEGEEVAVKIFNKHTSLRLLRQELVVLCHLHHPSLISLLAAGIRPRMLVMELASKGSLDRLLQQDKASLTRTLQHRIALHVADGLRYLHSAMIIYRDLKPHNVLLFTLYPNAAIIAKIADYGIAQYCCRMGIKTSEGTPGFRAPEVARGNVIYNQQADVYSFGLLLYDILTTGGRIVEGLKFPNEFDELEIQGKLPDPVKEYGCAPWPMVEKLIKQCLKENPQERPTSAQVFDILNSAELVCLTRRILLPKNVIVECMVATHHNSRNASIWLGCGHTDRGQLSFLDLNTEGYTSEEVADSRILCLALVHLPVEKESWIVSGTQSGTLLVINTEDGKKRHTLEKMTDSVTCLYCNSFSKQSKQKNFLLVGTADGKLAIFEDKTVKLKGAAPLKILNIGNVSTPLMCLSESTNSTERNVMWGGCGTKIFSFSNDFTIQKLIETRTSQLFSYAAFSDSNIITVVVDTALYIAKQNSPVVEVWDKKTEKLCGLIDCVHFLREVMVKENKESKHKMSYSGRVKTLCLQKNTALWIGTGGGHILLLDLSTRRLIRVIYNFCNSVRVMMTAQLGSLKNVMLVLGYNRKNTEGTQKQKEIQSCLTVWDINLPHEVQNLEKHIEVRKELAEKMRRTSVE
A general note: In TR-FRET formats the signal depends on donor and acceptor labels being close together.

A further assay addresses T1, SYK kinase (Homo sapiens, UniProt P43405).
T1 construct: purchased Invitrogen, Carlsbad
In words: SYK Assay (OMNIA KINASE ASSAY, SOX peptide fluorescence). The class given is biochemical. The following applies: apparent Ki calculated from the IC50 using the Cheng-Prusoff equation; 1 mM ATP, 30° C.; read-out: SYK Activities: Ki. An outline of the steps: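 Apparent Ki values are derived by Cheng-Prusoff from IC50s of sigmoidal fits of reaction rate against compound concentration. Rates come from chelation-enhanced SOX fluorescence (λex 360/λem 485 nm, read every 30 s over 30 min) as the kinase phosphorylates 10 µM Omnia Tyr 7 peptide at 30 °C, with 1 mM ATP and 0.2 mM DTT.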

In general, IC50 refers to the point on the concentration scale where inhibition reaches its midpoint. `CN(C)c1ccc(Nc2nc(-c3ccncc3)nc3cn[nH]c23)cc1` [Example #17, N1,N1-dimethyl-N4-(5-(pyridin-4-yl)-1H-pyrazolo[4,3-d]pyrimidin-7-yl)benzene-1,4-diamine]: the IC50 on LRRK2 fell in the range of 100 to 1000 nM. On SYK kinase, the Ki was 10 to 100 nM.
On the same counts, the results for `Oc1cccc(Nc2nc(-c3ccccc3)nc3cn[nH]c23)c1` [Example #65, 3-((5-phenyl-1H-pyrazolo[4,3-d]pyrimidin-7-yl)amino)phenol] are 100 to 1000 nM and 10 to 100 nM.
On the same counts, the results for `CN1CCN(c2ccc(Nc3nc(-c4cscn4)nc4cn[nH]c34)cc2)CC1` [Example #197, N-(4-(4-methylpiperazin-1-yl)phenyl)-5-(thiazol-4-yl)-1H-pyrazolo[4,3-d]pyrimidin-7-amine] are 100 to 1000 nM and under 10 nM.
In the same order, the values of `COc1ccc(-c2nc(Nc3ccc(N4CCOCC4)cc3)c3[nH]ncc3n2)cc1OC` [Example #25, 5-(3,4-dimethoxyphenyl)-N-(4-morpholinophenyl)-1H-pyrazolo[4,3-d]pyrimidin-7-amine] are 100 to 1000 nM and under 10 nM.
Consider `Fc1cccc(-c2nc(Nc3ccc(N4CCOCC4)cc3)c3[nH]ncc3n2)c1` [Example #235, 5-(3-fluorophenyl)-N-(4-morpholinophenyl)-1H-pyrazolo[4,3-d]pyrimidin-7-amine], for which the IC50 at LRRK2 lay within 10 to 100 nM. Also, on SYK kinase, the Ki was under 10 nM.
Consider `c1ccc(-c2nc(Nc3ccc4[nH]ncc4c3)c3[nH]ncc3n2)cc1` [Example #1, N-(1H-indazol-5-yl)-5-phenyl-1H-pyrazolo[4,3-d]pyrimidin-7-amine], for which the IC50 at LRRK2 was in the range of 100 to 1000 nM. For the same compound, on SYK kinase, the Ki was under 10 nM.
In the case of `O=C1CSc2ccc(Nc3nc(-c4ccsc4)nc4cn[nH]c34)cc2N1` [Example #158, 6-((5-(thiophen-3-yl)-1H-pyrazolo[4,3-d]pyrimidin-7-yl)amino)-2H-benzo[b][1,4]thiazin-3(4H)-one], the IC50 at LRRK2 was in the range of 10 to 100 nM. Also, the Ki on SYK kinase is 10 to 100 nM.
On to `CN1CCN(C2CCN(C(=O)c3ccc(Nc4nc(-c5cccs5)nc5cn[nH]c45)cc3)CC2)CC1` [Example #297, (4-(4-methylpiperazin-1-yl)piperidin-1-yl)(4-((5-(thiophen-2-yl)-1H-pyrazolo[4,3-d]pyrimidin-7-yl)amino)phenyl)methanone], for which the IC50 at LRRK2 fell in the range of 10 to 100 nM. Besides, the Ki at SYK kinase is under 10 nM.
In the same order, the values of `CN(C)c1ccc(Nc2nc(-c3cccs3)nc3cn[nH]c23)cc1` [Example #71, N1,N1-dimethyl-N4-(5-(thiophen-2-yl)-1H-pyrazolo[4,3-d]pyrimidin-7-yl)benzene-1,4-diamine] are 10 to 100 nM and under 10 nM.
As for `CN1CCN(c2ccc(Nc3nc(-c4cnc[nH]4)nc4cn[nH]c34)cc2)CC1` [Example #140, 5-(1H-imidazol-5-yl)-N-(4-(4-methylpiperazin-1-yl)phenyl)-1H-pyrazolo[4,3-d]pyrimidin-7-amine], the IC50 on LRRK2 lay in the range of 100 to 1000 nM. Further, on SYK kinase, the Ki was 10 to 100 nM.
Consider `CN1CCCc2ccc(Nc3nc(-c4cccs4)nc4cn[nH]c34)cc21` [Example #166, 1-methyl-N-(5-(thiophen-2-yl)-1H-pyrazolo[4,3-d]pyrimidin-7-yl)-1,2,3,4-tetrahydroquinolin-7-amine], for which, on LRRK2, the IC50 fell in the range of 10 to 100 nM. For the same compound, the Ki on SYK kinase was 10 to 100 nM.
Consider `O=C1CCc2ccc(Nc3nc(-c4cocn4)nc4cn[nH]c34)cc2N1` [Example #207, 7-((5-(oxazol-4-yl)-1H-pyrazolo[4,3-d]pyrimidin-7-yl)amino)-3,4-dihydroquinolin-2(1H)-one], for which the IC50 on LRRK2 fell in the range of 100 to 1000 nM. In addition, the Ki at SYK kinase was under 10 nM.
Turning to `COc1ccc(-c2nc(Nc3ccc4c(c3)NC(=O)CO4)c3[nH]ncc3n2)cc1OC` [Example #26, 6-((5-(3,4-dimethoxyphenyl)-1H-pyrazolo[4,3-d]pyrimidin-7-yl)amino)-2H-benzo[b][1,4]oxazin-3(4H)-one], the IC50 at LRRK2 lay in the range of 10 to 100 nM. For the same compound, at SYK kinase, the Ki is 10 to 100 nM.
On to `COc1ccc(-c2nc(Nc3ccc(N(C)C)cc3)c3[nH]ncc3n2)cc1OC` [Example #23, N1-(5-(3,4-dimethoxyphenyl)-1H-pyrazolo[4,3-d]pyrimidin-7-yl)-N4,N4-dimethylbenzene-1,4-diamine], for which, at LRRK2, the IC50 is 10 to 100 nM. For the same compound, on SYK kinase, the Ki was under 10 nM.
`O=C(c1ccc(Nc2nc(-c3ccsc3)nc3cn[nH]c23)cc1)N1CCOCC1` [Example #157, morpholino(4-((5-(thiophen-3-yl)-1H-pyrazolo[4,3-d]pyrimidin-7-yl)amino)phenyl)methanone]: the IC50 on LRRK2 was in the range of 100 to 1000 nM. Further, the Ki on SYK kinase is 10 to 100 nM.
For the compound `Fc1ccccc1-c1nc(Nc2ccc(N3CCOCC3)cc2)c2[nH]ncc2n1` [Example #233, 5-(2-fluorophenyl)-N-(4-morpholinophenyl)-1H-pyrazolo[4,3-d]pyrimidin-7-amine], the IC50 on LRRK2 is 100 to 1000 nM. Besides, the Ki at SYK kinase is under 10 nM.
As to `COc1ccc(Nc2nc(-c3ccccc3F)nc3cn[nH]c23)cc1OC` [Example #232, N-(3,4-dimethoxyphenyl)-5-(2-fluorophenyl)-1H-pyrazolo[4,3-d]pyrimidin-7-amine], the IC50 on LRRK2 fell in the range of 100 to 1000 nM. Also, the Ki at SYK kinase is under 10 nM.
For `c1csc(-c2nc(Nc3ccc4cn[nH]c4c3)c3[nH]ncc3n2)c1` [Example #82, N-(1H-indazol-6-yl)-5-(thiophen-2-yl)-1H-pyrazolo[4,3-d]pyrimidin-7-amine], the IC50 at LRRK2 was under 10 nM. The Ki at SYK kinase is under 10 nM.
Turning to `c1cc(-c2nc(Nc3ccc4cn[nH]c4c3)c3[nH]ncc3n2)cs1` [Example #76, N-(1H-indazol-6-yl)-5-(thiophen-3-yl)-1H-pyrazolo[4,3-d]pyrimidin-7-amine], the IC50 on LRRK2 lay within 10 to 100 nM. In addition, at SYK kinase, the Ki was under 10 nM.
In the case of `O=C1CCc2ccc(Nc3nc(-c4cnc5cc[nH]c5c4)nc4cn[nH]c34)cc2N1` [Example #257, 7-((5-(1H-pyrrolo[3,2-b]pyridin-6-yl)-1H-pyrazolo[4,3-d]pyrimidin-7-yl)amino)-3,4-dihydroquinolin-2(1H)-one], the IC50 on LRRK2 fell in the range of 100 to 1000 nM. Further, the Ki at SYK kinase is under 10 nM.
As to `COc1ccc(-c2nc(Nc3ccc4cn[nH]c4c3)c3[nH]ncc3n2)cc1OC` [Example #22, 5-(3,4-dimethoxyphenyl)-N-(1H-indazol-6-yl)-1H-pyrazolo[4,3-d]pyrimidin-7-amine], the 50% inhibitory concentration (IC50) on LRRK2 was 100 to 1000 nM. The Ki at SYK kinase is 10 to 100 nM.
In the same order, the values of `CC(=O)N1CCN(c2ccc(Nc3nc(-c4nccs4)nc4cn[nH]c34)cc2)CC1` [Example #184, 1-(4-(4-((5-(thiazol-2-yl)-1H-pyrazolo[4,3-d]pyrimidin-7-yl)amino)phenyl)piperazin-1-yl)ethan-1-one] are 10 to 100 nM and under 10 nM.
`COc1ccc(Nc2nc(-c3cscn3)nc3cn[nH]c23)cc1OC` [Example #199, N-(3,4-dimethoxyphenyl)-5-(thiazol-4-yl)-1H-pyrazolo[4,3-d]pyrimidin-7-amine]: the IC50 on LRRK2 lay within 10 to 100 nM. Also, the Ki at SYK kinase is 10 to 100 nM.
As to `COc1ccc(Nc2nc(-c3ccncc3)nc3cn[nH]c23)cc1OC` [Example #18, N-(3,4-dimethoxyphenyl)-5-(pyridin-4-yl)-1H-pyrazolo[4,3-d]pyrimidin-7-amine], at LRRK2, the IC50 fell in the range of 100 to 1000 nM. Besides, on SYK kinase, the Ki is 10 to 100 nM.
In the same order, the values of `COc1ccc(Nc2nc(-c3cccc(-c4nn[nH]n4)c3)nc3cn[nH]c23)cc1OC` [Example #193, 5-(3-(2H-tetrazol-5-yl)phenyl)-N-(3,4-dimethoxyphenyl)-1H-pyrazolo[4,3-d]pyrimidin-7-amine] are 100 to 1000 nM and under 10 nM.
On the same counts, the results for `O=S1(=O)CCN(c2ccc(Nc3nc(-c4cccs4)nc4cn[nH]c34)cc2)CC1` [Example #137, 4-(4-((5-(thiophen-2-yl)-1H-pyrazolo[4,3-d]pyrimidin-7-yl)amino)phenyl)thiomorpholine 1,1-dioxide] are 10 to 100 nM and under 10 nM.
On the same counts, the results for `COc1ccc(-c2nc(Nc3ccc4c(c3)NCCO4)c3[nH]ncc3n2)cc1` [Example #87, N-(5-(4-methoxyphenyl)-1H-pyrazolo[4,3-d]pyrimidin-7-yl)-3,4-dihydro-2H-benzo[b][1,4]oxazin-6-amine] are 10 to 100 nM and under 10 nM.
Regarding `COc1ccccc1-c1nc(Nc2ccc(N3CCN(C)CC3)cc2)c2[nH]ncc2n1` [Example #108, 5-(2-methoxyphenyl)-N-(4-(4-methylpiperazin-1-yl)phenyl)-1H-pyrazolo[4,3-d]pyrimidin-7-amine], the IC50 at LRRK2 is 100 to 1000 nM. The Ki at SYK kinase is 10 to 100 nM.
On to `O=C1CCCc2ccc(Nc3nc(-c4cccc(C(=O)O)c4)nc4cn[nH]c34)cc2N1` [Example #218, 3-(7-((2-oxo-2,3,4,5-tetrahydro-1H-benzo[b]azepin-8-yl)amino)-1H-pyrazolo[4,3-d]pyrimidin-5-yl)benzoic acid], for which the IC50 at LRRK2 lay in the range of 100 to 1000 nM. The Ki at SYK kinase was 10 to 100 nM.
On the same counts, the results for `COc1cccc(-c2nc(Nc3ccc(N(C)C)cc3)c3[nH]ncc3n2)c1` [Example #63, N1-(5-(3-methoxyphenyl)-1H-pyrazolo[4,3-d]pyrimidin-7-yl)-N4,N4-dimethylbenzene-1,4-diamine] are 100 to 1000 nM and under 10 nM.
For `c1cc2[nH]ncc2cc1Nc1nc(-c2ccc(N3CCCC3)nc2)nc2cn[nH]c12` [Example #14, N-(1H-indazol-5-yl)-5-(6-(pyrrolidin-1-yl)pyridin-3-yl)-1H-pyrazolo[4,3-d]pyrimidin-7-amine], the IC50 at LRRK2 was in the range of 100 to 1000 nM. The Ki at SYK kinase was 10 to 100 nM.
